Source: the supplement of paper PMC13380429
± gives the standard deviation of the averaged measurements.

Columns and labels:
Conditions in all cases: 72 h
Vero E6 [1] = assay: relative viability EC50 (midpoint between 100% and the lowest measured viability); higher = less toxic
Caco-2 [2] = assay: as above
U2OS [3] = assay: as above
HepG2 [4] = assay: as above
Calu-3 [5] = assay: as above
Vero E6 [6] = assay: drug sensitivity score (DSS) for viability; higher = more toxic; extreme values may be limits of the assay
Caco-2 [7] = assay: as above
U2OS [8] = assay: as above
HepG2 [9] = assay: as above
Calu-3 [10] = assay: as above
Vero E6 [11] = assay: cell viability relative to DMSO; higher = less toxic
Caco-2 [12] = assay: as above
U2OS [13] = assay: as above
HepG2 [14] = assay: as above
Calu-3 [15] = assay: as above

Row | SMILES | relative viability EC50 (Vero E6 [1]) | relative viability EC50 (Caco-2 [2]) | relative viability EC50 (U2OS [3]) | relative viability EC50 (HepG2 [4]) | relative viability EC50 (Calu-3 [5]) | drug sensitivity score (Vero E6 [6]) | drug sensitivity score (Caco-2 [7]) | drug sensitivity score (U2OS [8]) | drug sensitivity score (HepG2 [9]) | drug sensitivity score (Calu-3 [10]) | cell viability (Vero E6 [11]; 1 nM) | cell viability (Vero E6 [11]; 10 nM) | cell viability (Vero E6 [11]; 100 nM) | cell viability (Vero E6 [11]; 1000 nM) | cell viability (Vero E6 [11]; 10000 nM) | cell viability (Caco-2 [12]; 1 nM) | cell viability (Caco-2 [12]; 10 nM) | cell viability (Caco-2 [12]; 100 nM) | cell viability (Caco-2 [12]; 1000 nM) | cell viability (Caco-2 [12]; 10000 nM) | cell viability (U2OS [13]; 1 nM) | cell viability (U2OS [13]; 10 nM) | cell viability (U2OS [13]; 100 nM) | cell viability (U2OS [13]; 1000 nM) | cell viability (U2OS [13]; 10000 nM) | cell viability (HepG2 [14]; 1 nM) | cell viability (HepG2 [14]; 10 nM) | cell viability (HepG2 [14]; 100 nM) | cell viability (HepG2 [14]; 1000 nM) | cell viability (HepG2 [14]; 10000 nM) | cell viability (Calu-3 [15]; 1 nM) | cell viability (Calu-3 [15]; 10 nM) | cell viability (Calu-3 [15]; 100 nM) | cell viability (Calu-3 [15]; 1000 nM) | cell viability (Calu-3 [15]; 10000 nM)
1 | CN(C)C(=O)[C@H](O)[C@H](Cc1ccccc1)NC(=O)c1cc2cc(Cl)ccc2[nH]1 | > 10 µM | > 10 µM | > 10 µM | > 10 µM | > 10 µM | 0 | 0 | 0 | 0 | 0 | 108% | 94.6% | 102% | 98.3% | 106% | 87.2% | 97% | 96.2% | 106% | 96.8% | 95.4% | 102% | 90.5% | 95.3% | 97% | 103% | 96% | 106% | 105% | 106% | 96.2% | 104% | 97% | 102% | 102%
2 | CN1CCN(c2nc3ccccc3nc2Cl)CC1 | > 10 µM | > 10 µM | > 10 µM | > 10 µM | > 10 µM | 0 | 0 | 0 | 0 | 0 | 101% | 102% | 103% | 94.2% | 97.5% | 89.4% | 90.5% | 98.3% | 88.4% | 91.6% | 95.9% | 97.6% | 99% | 103% | 96.3% | 97.2% | 92.9% | 104% | 93% | 95.9% | 93.4% | 105% | 106% | 92.4% | 98.3%
3 | Cc1c(Cc2ccc3ccccc3n2)c2cc(F)ccc2n1CC(=O)O | > 10 µM | > 10 µM | > 10 µM | > 10 µM | > 10 µM | 0 | 0 | 0 | 0 | 0 | 102% | 96.7% | 99.5% | 97.8% | 101% | 94.6% | 99.4% | 98.7% | 98.4% | 109% | 94.7% | 101% | 95.4% | 97.9% | 108% | 119% | 96.9% | 109% | 108% | 105% | 95.8% | 108% | 96.8% | 110% | 111%
4 | NC(=O)CCCCn1ccc(/N=C(\N)NCC(F)(F)F)n1 | > 10 µM | > 10 µM | > 10 µM | > 10 µM | > 10 µM | 0 | 0 | 0 | 0 | 0 | 106% | 103% | 104% | 102% | 99.7% | 98.8% | 97.8% | 104% | 92.6% | 97.6% | 98.8% | 104% | 104% | 99.9% | 99.5% | 103% | 97.7% | 98.1% | 105% | 105% | 110% | 96.5% | 107% | 99.4% | 102%
5 | O=C(Nc1ccccc1)Nc1ccc(-c2ccc(C(=O)[C@@H]3CCC[C@@H]3C(=O)O)cc2)cc1 | > 10 µM | > 10 µM | > 10 µM | > 10 µM | > 10 µM | 0 | 0.4 ± 0.42 | 0 | 0.35 ± 0.49 | 0 | 101 ± 3.9% | 98.7 ± 1.1% | 98.45 ± 0.35% | 94.3 ± 2.8% | 95.1 ± 0.57% | 99.05 ± 0.78% | 95.8 ± 1.6% | 94.35 ± 0.35% | 97 ± 13% | 85.6 ± 0.28% | 98.5 ± 1.5% | 98.6 ± 5.8% | 100 ± 1.3% | 101 ± 2% | 94.2 ± 2.1% | 105.2 ± 0.49% | 96.4 ± 1.4% | 95.5 ± 10% | 92.2 ± 7% | 97.1 ± 7.3% | 111 ± 3% | 103.8 ± 0.85% | 97.2 ± 1.4% | 98.2 ± 5.6% | 108 ± 1.9%
6 | O=C(O)CCc1ccc(NCc2cccc3c2CCCN3CCOc2ccccc2)cc1F | > 10 µM | > 10 µM | > 10 µM | > 10 µM | > 10 µM | 0 | 0 | 0 | 0 | 0 | 97.5% | 98.2% | 97.4% | 98.6% | 96% | 106% | 96.2% | 101% | 106% | 96.4% | 101% | 96.5% | 99% | 97.4% | 104% | 97.9% | 101% | 100% | 100% | 95% | 93.2% | 97.4% | 91.6% | 94.8% | 99.6%
7 | O=C(c1ccc(F)cc1)N1CCC[C@H](c2nc(-c3ccc(F)cc3)no2)C1 | > 10 µM | > 10 µM | > 10 µM | > 10 µM | > 10 µM | 0 | 0 | 0 | 0 | 1.2 | 98.3% | 93.5% | 94.7% | 93.9% | 95.5% | 101% | 94.3% | 91.8% | 99.7% | 87.9% | 94% | 101% | 99.9% | 98.8% | 91.7% | 93.7% | 99.4% | 93% | 96% | 91.1% | 90% | 100% | 85.3% | 98.2% | 75.5%
8 | O=C1C(=C(O)/C=C/c2ccc(O)cc2)C(=O)[C@@](O)([C@@H]2O[C@H](CO)[C@@H](O)[C@H](O)[C@H]2O)C(=O)[C@H]1[C@@H]1O[C@H](CO)[C@@H](O)[C@H](O)[C@H]1O | > 10 µM | > 10 µM | > 10 µM | > 10 µM | > 10 µM | 0 | 0 | 0 | 0 | 0 | 101% | 98.1% | 98.5% | 95.8% | 98.5% | 102% | 91.2% | 93.1% | 93.3% | 95.8% | 101% | 97.8% | 95% | 99.3% | 98.6% | 102% | 97.2% | 104% | 102% | 106% | 103% | 97.6% | 102% | 101% | 97.9%
9 | N[C@@H](C(=O)O)c1ccc(C(=O)O)c(C(=O)O)c1 (racemic) [3,4-DCPG-(+/-)] | > 10 µM | > 10 µM | > 10 µM | > 10 µM | > 10 µM | 0 | 0 | 0 | 0 | 0 | 96.8 ± 6% | 101 ± 3.4% | 96 ± 2.5% | 100 ± 3.2% | 105 ± 4.1% | 101 ± 5.2% | 94.9 ± 2.8% | 103 ± 3.2% | 96.6 ± 9.6% | 97.4 ± 2.9% | 99.5 ± 2.4% | 95.4 ± 0.42% | 103% | 97.6 ± 3.8% | 100 ± 3.4% | 88.3 ± 15% | 99.2 ± 3.1% | 89.5 ± 20% | 102 ± 6.3% | 97.7 ± 20% | 93.4 ± 4.4% | 99.8 ± 2.7% | 95.7 ± 3.2% | 93 ± 1.3% | 95.3 ± 1.3%
10 | O[C@@H](CN1CCC(Cc2ccc(F)cc2)CC1)c1ccc(Cl)cc1 (racemic) [eliprodil] | > 10 µM | > 10 µM | > 10 µM | > 10 µM | > 10 µM | 0 | 0 | 0 | 0 | 0 | 98.8% | 92% | 98.8% | 98.1% | 105% | 100% | 96.2% | 101% | 103% | 104% | 91.1% | 93.3% | 87.3% | 87.9% | 97.6% | 96.6% | 99.7% | 97.8% | 87.6% | 108% | 99.2% | 95.2% | 106% | 92.3% | 104%
11 | CCCN1CCCC(c2cccc(O)c2)C1 (stereo in doubt) [preclamol] | > 10 µM | > 10 µM | > 10 µM | > 10 µM | > 10 µM | 0 | 0 | 0 | 0 | 0 | 90.5% | 99.2% | 95.1% | 98.3% | 91.8% | 107% | 94.9% | 106% | 93.1% | 99.6% | 102% | 103% | 102% | 99.1% | 101% | 95.6% | 110% | 107% | 112% | 99.6% | 110% | 110% | 112% | 93.5% | 99.6%
12 | C[N+]1(C)CCC(OC(=O)C(c2ccccc2)c2ccccc2)CC1 [4-DAMP] | > 10 µM | > 10 µM | > 10 µM | > 10 µM | > 10 µM | 0 | 0 | 0 | 0 | 0 | 98.5% | 99.8% | 99% | 97.4% | 96% | 105% | 96.3% | 106% | 102% | 87.4% | 103% | 97.7% | 99.2% | 97.7% | 99.5% | 90.8% | 97% | 103% | 100% | 90.9% | 85.8% | 87.6% | 92.9% | 101% | 100%
13 | NCC(=O)CCC(=O)O [5-aminolevulinic-acid] | > 10 µM | > 10 µM | > 10 µM | > 10 µM | > 10 µM | 0 | 1.1 | 0 | 0 | 0 | 93.7% | 94% | 91.7% | 91.3% | 97.8% | 100% | 103% | 98.9% | 86.2% | 94% | 104% | 96.9% | 99% | 94.6% | 95.3% | 91.4% | 99% | 92.1% | 104% | 104% | 96.9% | 104% | 105% | 104% | 104%
14 | CCCCCCCCC(=O)NCc1cc(OC)c(O)cc1I [6-iodo-nordihydrocapsaicin] | > 10 µM | > 10 µM | > 10 µM | > 10 µM | > 10 µM | 0 | 0.1 | 0 | 0 | 0 | 88.5% | 99.4% | 92.2% | 92.5% | 104% | 97.9% | 101% | 103% | 97.7% | 88.6% | 97.4% | 98% | 101% | 96.6% | 92.5% | 96.6% | 110% | 95.6% | 104% | 103% | 104% | 98.6% | 108% | 109% | 104%
